The nature of series [1]: Circular dichroism, secondary structure content (CONTIN/LL). It counts as physicochemical. The settings on record: for Secondary Structure Random coil / Secondary Structure α-Helix / Secondary Structure β-Sheet: 0.3mg in 1mL, 20°C, far-UV CD, CONTIN/LL. As for the experimental part: We studied the structural properties of the peptides in vitro, using circular dichroism (see Materials and Methods). The far-UV CD spectra for NLS-CE, NLS-α and NLS-α-CE in water matched the characteristics of a random coil conformation.
Circular dichroism spectra were recorded on a ChirascanTM CD Spectrometer (Applied Photophysics, UK) equipped with a peltier temperature controller. 0.3mg of each peptide was dissolved in 1mL of water or 50% aqueous trifluoroethanol and placed in quartz cuvettes of 0.1cm path length. Far-UV CD spectra were collected from 185 to 250 nm at 20°C. Spectra were averaged over 5 scans and the averaged blank spectra of solvents were subtracted. Ellipticity is reported as mean residue molar ellipticity and recorded in terms of molar elipticity [θ] (deg cm^2 dmol^−1). CONTIN/LL within the CDPro analysis software program was used to estimate the secondary structure content of the peptides.

For series [2], the system named is pheromone-signaling pathway (Fus1-eGFP) in MATa cells. In words: Pheromone signaling assay, Fus1-GFP expression and shmoo phenotype. The settings on record: BY4741 fus1::eGFP, 60 μM peptide (20 μM for α-factor), 3h. It counts as cell-based, Saccharomyces cerevisiae. On the procedure: Finally, the activity of the α-factor embedded in the peptides was evaluated by activation of the pheromone-signaling pathway in MATa cells of S. cerevisiae. We monitored the pheromone signaling activity by following the expression of the GFP-labeled Fus1 protein. Fus1 is among the proteins with the highest pheromone-induced expression and is required for cell-cell fusion during mating. […] The observed phenotype was consistent with the activation of signaling showing a mating protrusion, often called “shmoo” as well as the absence of budding due to inhibition of the Cdc28 cyclin [35, 36].
Fig 5 Pheromone activity. The pheromone signaling pathway is confirmed by the expression of Fus1-GFP, characteristic “shmoo” phenotype and the absence of budding observed in differential interference contrast (DIC) bright field. Concentrations were 20 μM for α-factor and 60 μM for all other peptides. The negative control was water without any peptide.
Pheromone signaling induction in Saccharomyces cerevisiae was measured by induction of eGFP fluorescence in a BY4741 strain containing the Fus1-eGFP construct in place of the wild type Fus1 (MATa his3Δ1 leu2Δ0 met15Δ0 ura3Δ0 fus1::eGFP HIS3MX6, obtained from the yeast GFP collection). The BY4741 fus1::eGFP strain was grown overnight in YPD to mid-log phase and diluted to 10^6 cells/mL. Samples were treated with the respective peptide concentrations and incubated for 3h before mixing 1:1 with low-diffusivity agarose suspended on a covered glass slide. Images were taken with an Olympus FV10 confocal microscope using a 60x objective with […]. Images were analyzed using Fiji (www.fiji.sc). The only modifications applied to the images were separation of the bright field and GFP channels, adjustment of brightness and contrast to 50% and addition of scale bars.

Series [3] concerns Escherichia coli strain DH5α. It counts as cell-based. The settings on record: 12 h.
Series [4] concerns Escherichia coli strain DH5α. Put plainly: microbe, parasite or virus in culture. It counts as cell-based. The settings on record: for MIC: DH5α, 24 h, read-out: E. coli MIC for 50% inhibition. An excerpt: If CPP, DNA binding and AMP activities are compatible, the designed peptides should inhibit bacterial growth. Here we exposed E. coli DH5α cells to varying low concentrations of the designed peptides as well as several controls (see Fig 4). […] To test whether α-factor was important for AMP activity we also tested pure α-factor, pure NLS, the optimized NLS fitting CPP rules (NLS-CE) and the Iztli-1 peptide, a previously reported peptide with an embedded α-factor specifically designed to have antibacterial activity. […] A linear trend could be observed between concentration and growth inhibition (regression lines with standard deviations shown in Fig 6). […] The minimal inhibitory concentrations for E. coli are reported in Table 2 (growth curves are shown in S4 Fig).
Fig 6 Antibacterial activity. DH5α E. coli cells were treated with varying concentrations of peptides ranging from 0 to 16 μM for the peptides and 0 to 48 μM for Ampicillin. The relative area under the growth curve measured the growth inhibition. Measurements from four repetitions distributed onto two different plates are shown as dots colored by their respective concentrations. Linear regressions are shown as blue lines and their respective standard errors as blue shades. Dashed lines indicate the mean area under the curve for the H2O controls and its 50% value respectively. Minimal inhibitory concentrations to achieve 50% or 100% of cell growth inhibition are reported.
Escherichia coli strain DH5α was grown for 12 hours to mid-log phase and diluted to 8·10^5 cells/ml by using the reference OD obtained by absorption spectroscopy. Each sample 100μL culture was treated with 50μL solution containing the respective peptide in the desired concentration or water in the case of the controls. Growth curves were measured on two 96 well half area plates with two replicates each followed for 24h using a plate reader (Synergy, USA). In order to minimize plate-specific effects due to variations in loading time or initial cell numbers, different plates measurements were normalized by the time-point where the water control samples reached their half-maximal OD before combining. The respective minimum from each growth curve was subtracted from the normalized data from individual or combined plates. Areas under the curves were obtained by applying a linear interpolation to the OD curves, which was then integrated exactly. Growth rates were obtained by log-transforming the growth curves, identifying the exponential phase by the linear parts in that log-transformation (OD600 between 0.05 and 0.5) and performing a linear regression in the exponential phase with the slope denoting the respective growth rate. All mentioned methodology was implemented in R (www.r-project.org) and is available as open source at http://github.com/cdiener/dcf.
Using the slope of the linear regressions determined in these experiments, we estimated the minimal inhibitory concentration (MIC) for E. coli of our 3 CPP designed peptides (α-NLS-C, NLS-α-CE and chimera) and tested it experimentally.

Where [5] appears, read: E. coli DH5α, peptides 0 to 16 μM.

We go through two sequences from PMC4838304, “Effective Design of Multifunctional Peptides by Combining Compatible Functions” (PLoS Computational Biology, 2016).

Ends that are not written are not given here. Some results are limits rather than exact numbers.

In the case of “KRRWRFVWMNPKKKRKVPPWPYLLWWHWLQLKPGQPMY [chimera]”, in series [1] (50% TFE), the “Secondary Structure Random coil” value was found to be 48%, the “Secondary Structure α-Helix” value was found to be 24% and the “Secondary Structure β-Sheet” value is 28%. For the same sequence, in series [1] (water), the “Secondary Structure Random coil” value is recorded as 59%, the “Secondary Structure α-Helix” value amounted to 8% and the “Secondary Structure β-Sheet” value came out at 33%. Further, the “pheromone signaling activity (Fus1-GFP expression, phenotype)” value in series [2] is “partial shmoo-like phenotypes”. Moreover, in series [3], the “E. coli MIC for 100% inhibition” value stood at 22 µM. For the same sequence, the MIC in series [4] is on record as 4 µM. For the same sequence, the “concentration showing partial growth inhibition” value in series [4] (setting [5]) was determined as 2 µM.
Regarding “FRKWRRKPKKKRKVWWRKVKRRWHWLQLKPGQPMY [NLS-α-CE]”, in series [1] (50% TFE), the “Secondary Structure Random coil” value was 59%, the “Secondary Structure α-Helix” value is listed as 10% and the “Secondary Structure β-Sheet” value is reported as 31%. For the same sequence, in series [1] (50% TFE, CD spectra), the “aggregation suggested by decrease in negative ellipticity” value is recorded as “TFE promoted aggregation of the peptides”. Further, in series [1] (water), the “Secondary Structure Random coil” value stood at 64%, the “Secondary Structure α-Helix” value is listed as 6% and the “Secondary Structure β-Sheet” value came to 30%. Further, the “pheromone signaling activity (Fus1-GFP expression, phenotype)” value in series [2] is reported as “partial shmoo-like phenotypes”. Besides, in series [3], the “E. coli MIC for 100% inhibition” value was determined as 2 µM. Also, the MIC in series [4] is listed as less than 2 µM. Moreover, the “concentration abolishing E. coli growth completely” value in series [4] (setting [5]) is 2 µM.
